Results as given in publication PMC7481839, “Switchable foldamer ion channels with antibacterial activity” (Chemical Science, 2020).
In brackets after ≈: the same amount, converted by molar mass. Where a SMILES comes first, the peptide text is derived from it.

How the values were obtained:
[1] = HPTS assay of ionophoric activity in phospholipid vesicles; assay type: biochemical; settings: Table S1, HPTS assay
Experimental: The membrane activity of 1, 2, Cu[1]Cl2 and Cu[2]Cl2 was assessed in phospholipid vesicle membranes using 8-hydroxypyrene-1,3,6-trisulfonate (HPTS) assays. HPTS assays can show ionophoric activity that occurs via any combination of M^+/H^+ antiport, X^–/OH^– antiport, M^+/OH^– symport and X^–/H^+ symport.
The HPTS assays of 1, 2, Cu[1]Cl2 and Cu[2]Cl2 used 1 : 4 cholesterol : egg yolk phosphatidylcholine (EYPC) vesicles in MOPS buffer (pH 7.4) with 100 mM of an appropriate salt (e.g. KCl, KBr, NaCl), following previously reported procedures.[16] The resulting normalised data were fitted to pseudo first-order rate equations as an approximation (see the ESI ^†).[32] Although the change in fluorescence after the “burst phase” is likely to arise from multiple processes, including inter-vesicle transfer of foldamers,[33] this fitting allows the relative effectiveness of each compound to be compared.
CuCl2 was added at 2 min, followed by addition of 2.2 eq. EDTA at 3 min.
5.1 Preparation of large unilamellar vesicles for HPTS assays
The HPTS assays of 1, 2, Cu[1]Cl2 and Cu[2]Cl2 used 1:4 cholesterol:egg yolk phosphatidylcholine (EYPC) vesicles in MOPS buffer (pH 7.4) with 100 mM of an appropriate salt (e.g. KCl, KBr, NaCl).5 Aliquots of 1, 2, Cu[1]Cl2 or Cu[2]Cl2 dissolved in methanol were mixed with the vesicle suspensions for 60 s before adding a base pulse to change the external pH to 8.4.6 The resulting change in HPTS fluorescence was followed for 6 min, then Triton X-100 was added at 7 min to lyse the vesicles […]. Each assay was repeated three times on new vesicles. The resulting normalized data were fitted to pseudo first-order rate equations as an approximation (see the ESI), similar to the procedure of Regen and co-workers.7 Although the change in fluorescence after the “burst phase” is likely to arise from multiple processes, including inter-vesicle transfer of foldamers,8 this fitting allows the relative effectiveness of each compound to be compared.
Egg yolk phosphatidylcholine (EYPC, 64 μmol) and cholesterol (16 μmol) were dissolved in 2 mL chloroform (spectroscopic grade). The solvent was removed under reduced pressure resulting in a thin film of lipid on the inside wall of the round bottom flask, which was dried further under vacuum for 2 hours. 1.2 mL of a trisodium 8-hydroxypyrene-1,3,6-trisulfonate (HPTS, 100 mM, pH = 7.4) dye in (3-(N-morpholino) propanesulfonic acid) buffer (20 mM MOPS, 100 mM MX (M = K or Na, X = Cl, Br or NO3− adjusted to pH 7.4 using NaOH) were added to the lipid film. Afterwards, the thin film was detached from the sides of the flask by vortex mixing. The resulting lipid suspension was then extruded 19 times through an 800 nm polycarbonate membrane in an Avestin Liposofast extruder to give a suspension of 800 nm large unilamellar vesicles. Unencapsulated HPTS dye was removed by gel permeation chromatography on PD-10 SEC columns (Sephadex G-25). Hereby 1 mL of the 800 nm vesicle suspension was diluted to 2.5 mL with 20 mM MOPS buffer solution and loaded onto the GPC column. The suspension run onto the column, followed by 3.5 mL of 20 mM MOPS buffer, which were collected, giving a stock vesicle solution of 3.5 mL (final concentration of lipids = 15.23 mM). This solution of vesicles was used directly in the HPTS experiments.
5.2 Procedure for HPTS assays
100 μL of the vesicle stock solution was diluted to 2 mL with 20 mM MOPS buffer (final lipid concentration in cuvette 0.762 mM). To this vesicle suspension was then added 20 μL of the principle compound in methanol (1 mM or 0.6 mM for Cu[2]Cl2) and the cuvette was equipped with a stirrer bar. The cuvette was […]

Solubility = assay type: physicochemical; settings: under the haemolysis assay conditions (blood diluted with PBS, compound added from DMSO)
From the text: Mixing 1 or 2 with CuCl2 or CuCl provided green or blue complexes respectively. […] The blue complexes from the addition of CuCl gave very broad NMR spectra even after preparing fresh samples, which was ascribed to in situ oxidation of Cu(I); Cu(I)(TPA) complexes are very efficient one electron donors and will rapidly reduce alkyl halides[27] and oxygen.[28] Furthermore these blue products gave green solids when dried (see the ESI, Fig. S2 ^†).
Although alamethicin is a very active channel former, its use in the clinic is hampered by its high haemolytic activity.[52] […] It is known that the haemolytic activity of amphipathic peptides, including alamethicin, decreases substantially on a reduction of peptide hydrophobicity and hydrophobic moment.[56]

Structure (SMILES): CC(C)(NC(=O)C(C)(C)NC(=O)C(C)(C)NC(=O)C(C)(C)NC(=O)C(C)(C)n1cc(CN(Cc2ccccn2)Cc2ccccn2)nn1)C(=O)NC(C)(C)C(=O)NC(C)(C)C(=O)NC(C)(C)C(=O)OCC[Si](C)(C)C [foldamer 2] (HELM PEPTIDE1{[CC(C)(C(=O)[*:2])n1cc(CN(Cc2ccccn2)Cc2ccccn2)nn1].[Aib].[Aib].[Aib].[Aib].[Aib].[Aib].[Aib].[C[Si](C)(C)CCO[*:1]]}$$$$V2.0)
- Apparent observed rate constant kobs, KBr ([1]; 100 mM KBr, compound 10 µM): 4.0 10−3 s−1
- Apparent observed rate constant kobs, KCl ([1]; 100 mM KCl, compound 10 µM): 3.3 10−3 s−1
- Apparent observed rate constant kobs, KNO3 ([1]; 100 mM KNO3, compound 10 µM): 3.2 10−3 s−1
- Apparent observed rate constant kobs, NaCl ([1]; 100 mM NaCl, compound 10 µM, methanol control 1 × 10−3 s−1): 4.6 10−3 s−1
- solubility limit (Solubility): 20 µM (≈ 21.2 µg/mL)
